Assay results taken from publication PMC6413024, “Multimerization Increases Tumor Enrichment of Peptide–Photosensitizer Conjugates” (Molecules, 2019).

How the values were obtained:
[1] = UV–Vis absorption and fluorescence spectra in DMSO; format: physicochemical; conditions: for λmax: UV–Vis absorption in DMSO, Q-band, recorded from 300 to 800 nm; for λem: fluorescence emission in DMSO, Hitachi F-4500, 2.0 µM, excitation at approximately 668 nm; for Stokes Shift: in DMSO
Method: (§1) The UV–Vis absorption spectra and fluorescence spectra of the synthesized conjugates of Pyro-MonoRGD, Pyro-DiRGD, Pyro-TriRGD, and free Pyro were measured in DMSO. Absorption spectra were recorded from 300 to 800 nm. Fluorescence emission and excitation spectra were recorded from 550 to 800 nm upon excitation at approximately 668 nm and emission at 672–673 nm using a Hitachi model F-4500 FL spectrophotometer (Tokyo, Japan). The singlet oxygen quantum yields (ΦΔ) of the conjugates were measured in DMSO using DPBF as the quencher and Pyro as the reference.

[2] = Singlet oxygen quantum yield in DMSO; format: physicochemical; conditions: DPBF as the quencher and Pyro as the reference
Method: as §1

[3] = target: human isolated αvβ3 integrin receptors (ITGAV&ITGB3 heterodimer) (Homo sapiens, UniProt P05106+P06756); assay: Receptor binding assay: competitive inhibition of biotinylated vitronectin binding to αvβ3 integrin; conditions: for IC50: biotinylated vitronectin 2.0 μg/mL, integrin 2.0 μg/mL in PBS pH 7.4, 4 °C overnight, test compounds 10^−3 to 10^−11 M, 3 h, 37 °C shaker, streptavidin–HRP/TMB, absorbance 450 nm, nonlinear regression GraphPad Prism 5.0, means ± SD of triplicate determinations
Method: Human integrin αvβ3 (ITGAV&ITGB3) heterodimer protein was diluted to 2.0 μg/mL in PBS buffer (pH 7.4) and was then added to a 96-well plate (100 μL/well) and incubated overnight at 4 °C. The plate was blocked with 10% milk solution for an additional 2 h in a 37 °C shaker, followed by a 3 h incubation in the 37 °C shaker with various concentrations (10^−3 to 10^−11 M) of test compounds in the presence of biotinylated vitronectin (2.0 μg/mL). After washing, the plates were incubated for 1 h in the 37 °C shaker with streptavidin–HRP and then washed again, followed by 30 min of incubation with 100 μL/well TMB single-component substrate solution before stopping the reaction with the addition of 100 μL/well 2.0 N H2SO4. The absorbance at 450 nm was read on a microplate reader. Each data point represents the average of the triplicate wells, and data analysis was performed using nonlinear regression analysis with GraphPad Prism 5.0 software (GraphPad Software, Inc., San Diego, CA, USA.).

U87-MG tumor [4] = format: in vivo, Balb/c nude mice; human U87-MG cells
Description: To examine the tumor enrichment of these conjugates in vivo, we prepared a xenograft tumor model by subcutaneously inoculating mice with U87-MG tumor cells ([…]) on the axilla. U87-MG cells have high expression levels of the αvβ3 integrin receptor. When the tumors grew to approximately 200 mm^3 in volume, the conjugates (50 nmol per mouse) were intravenously injected into the mice via the tail vein. The fluorescence signal and intensity distribution were continuously monitored using an in vivo fluorescence imaging system (IVIS Lumina II, Xenogen, Alameda, CA, USA). […] However, relatively weak fluorescence signals in the tumor site could be detected. […] The increased water hydrophilicity of the divalent and trivalent conjugates may contribute to the reduction in the liver accumulation.
Human U87-MG cells (4 × 10^6 cells/mouse) were subcutaneously inoculated on the axilla of female Balb/c nude mice. […] In vivo fluorescence analysis was performed before and after the injection at various time points using the IVIS Lumina imaging system (IVIS Lumina II, Xenogen, USA) with a Cy5.5 filter (excitation: 615–665 nm, emission: 695–770 nm). Alternatively, the mice were euthanized at 2 h postinjection, and major organs, including the heart, liver, spleen, lungs, kidneys, and muscles, as well as the tumor, were collected; fluorescence images were then acquired.

U87-MG tumor [5] = format: in vivo, Balb/c nude mice; human U87-MG cells; conditions: 50 nmol/mouse i.v.; mice euthanized 2 h postinjection; vs the other two conjugates; triplicates
Method: To further verify the tumor targeting ability of these conjugates, the mice were euthanized 2 h postinjection, and their organs were collected for imaging. As shown in Figure 3B (heart, liver, spleen, lungs, and tumor from left to right), when the valence of the conjugates increased, the fluorescence signal in the tumor region increased.
Human U87-MG cells (4 × 10^6 cells/mouse) were subcutaneously inoculated on the axilla of female Balb/c nude mice. When the tumors grew to 200 mm^3, the mice were divided into three groups with each group containing three mice. The mice were then intravenously injected with 50 nmol/mouse of Pyro-MonoRGD, Pyro-DiRGD, and Pyro-TriRGD, respectively. In vivo fluorescence analysis was performed before and after the injection at various time points using the IVIS Lumina imaging system (IVIS Lumina II, Xenogen, USA) with a Cy5.5 filter (excitation: 615–665 nm, emission: 695–770 nm). Alternatively, the mice were euthanized at 2 h postinjection, and major organs, including the heart, liver, spleen, lungs, kidneys, and muscles, as well as the tumor, were collected; fluorescence images were then acquired.

tumors in a mouse model = conditions: general statement on Pyro; no reference given at the statement; cited from earlier work
Description: (§2) Pyro is a very promising photosensitizer with ideal photoactivity properties, including a high extinction coefficient (3.79 × 10^4 L mol^−1 cm^−1) and a high singlet oxygen quantum yield (over 50%). […] Solving the tumor enrichment problem is very important for its clinical application. Here, to further increase the affinity of RGD peptide-coupled Pyro conjugates to the receptor αvβ3 integrin, we synthesized multimeric RGD-coupled Pyro conjugates to increase the affinity via multivalent and cluster effects, thereby improving the upt ...

[6] = cited from earlier work
Description: as §2

αvβ3 integrin receptor = conditions: compared with antibody molecules; no reference given at the statement; cited from earlier work
Description: However, compared with antibody molecules, small molecule ligands have a much weaker affinity to their receptors, which makes their tumor enrichment not always ideal. In our former work, we coupled a very promising photosensitizer, pyropheophorbide-a (Pyro), which has ideal photosensitizer properties, with a small molecule tumor homing ligand—cyclo(-RGDfK-)—to prepare a tumor-targeted conjugate. The cyclic peptide cyclo(-RGDfK-), which contains a conformationally restrained RGD sequence, has been often used for targeting tumor imaging and/or therapeutic agents as a high affinity ligand ...

| Compound | λmax [1] [nm] | λem [1] [nm] | Stokes Shift [1] [nm] | singlet oxygen quantum yield ΦΔ [2] | IC50 [3] [µM] | further results |
| --- | --- | --- | --- | --- | --- | --- |
| C=Cc1c(C)c2cc3nc(c4c5[nH]c(cc6nc(cc1[nH]2)C(C)=C6CC)c(C)c5C(=O)C4)[C@@H](CCC(=O)NC(COCCC(=O)NCCCOCCOCCOCCCNC(=O)C[C@@H]1NC(=O)[C@@H](Cc2ccccc2)NC(=O)[C@H](CC(=O)O)NC(=O)CNC(=O)[C@H](CCCNC(=N)N)NC1=O)COCCC(=O)NCCCOCCOCCOCCCNC(=O)C[C@@H]1NC(=O)[C@@H](Cc2ccccc2)NC(=O)[C@H](CC(=O)O)NC(=O)CNC(=O)[C@H](CCCNC(=N)N)NC1=O)[C@@H]3C (stereo partly drawn) [Pyro-DiRGD] | 668 | 673 | 5 | 0.47 | 0.313 ± 0.0231 |  |
| C=Cc1c(C)c2cc3nc(c4c5[nH]c(cc6nc(cc1[nH]2)C(C)=C6CC)c(C)c5C(=O)C4)[C@@H](CCC(=O)NC(COCCC(=O)NCCCOCCOCCOCCCNC(=O)C[C@@H]1NC(=O)[C@@H](Cc2ccccc2)NC(=O)[C@H](CC(=O)O)NC(=O)CNC(=O)[C@H](CCCNC(=N)N)NC1=O)(COCCC(=O)NCCCOCCOCCOCCCNC(=O)C[C@@H]1NC(=O)[C@@H](Cc2ccccc2)NC(=O)[C@H](CC(=O)O)NC(=O)CNC(=O)[C@H](CCCNC(=N)N)NC1=O)COCCC(=O)NCCCOCCOCCOCCCNC(=O)C[C@@H]1NC(=O)[C@@H](Cc2ccccc2)NC(=O)[C@H](CC(=O)O)NC(=O)CNC(=O)[C@H](CCCNC(=N)N)NC1=O)[C@@H]3C (stereo partly drawn) [Pyro-TriRGD] | 668 | 673 | 5 | 0.48 | 0.0438 ± 0.0082 | tumor accumulation, 2–6 h postinjection (U87-MG tumor [4]; 50 nmol/mouse i.v., 2–6 h postinjection): excellent tumor accumulation at 2–6 h postinjection; tumor enrichment, overall comparison (U87-MG tumor [4]; compared with the other two conjugates): had the best tumor enrichment compared with the other two conjugates; fluorescence intensity in excised tumor, 2 h postinjection (U87-MG tumor [5]): the highest fluorescence intensity at the tumor site; binding to integrin αvβ3, fold better than Pyro-DiRGD ([3]; ratio vs divalent Pyro-DiRGD): 7 -fold; binding to integrin αvβ3, fold better than Pyro-MonoRGD ([3]; ratio vs monovalent Pyro-MonoRGD): 20 -fold |
| C=Cc1c(C)c2cc3nc(c4c5[nH]c(cc6nc(cc1[nH]2)C(C)=C6CC)c(C)c5C(=O)C4)[C@@H](CCC(=O)O)[C@@H]3C [Pyro, pyropheophorbide-a, reference compound] | 668 | 673 | 5 | 0.52 |  | tumor localization ability (tumors in a mouse model): very limited tumor localization ability; extinction coefficient [6]: 37900 L/mol/cm; singlet oxygen quantum yield [6]: over 50% |
| cyclo(-RGDfK-) |  |  |  |  |  | affinity to αvβ3 integrin receptor (αvβ3 integrin receptor): only has a moderate affinity to the αvβ3 integrin receptor |
| C=Cc1c(C)c2cc3nc(c4c5[nH]c(cc6nc(cc1[nH]2)C(C)=C6CC)c(C)c5C(=O)C4)[C@@H](CCC(=O)NCCCOCCOCCOCCCNC(=O)C[C@@H]1NC(=O)[C@@H](Cc2ccccc2)NC(=O)[C@H](CC(=O)O)NC(=O)CNC(=O)[C@H](CCCNC(=N)N)NC1=O)[C@@H]3C [Pyro-MonoRGD] |  |  |  |  | 0.951 ± 0.0396 |  |
